Test results from ChEMBL document CHEMBL1201862, “PubChem BioAssay data set” (2004).
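In this assay, cells in 96-well plates receive the compound at five concentrations for 48 hours. Endpoints are linearly interpolated between the surrounding concentrations. At the GI50, growth is halved.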 The source made the active and inactive calls. No stated cut-off is given here; in the data, active = GI50 up to about 1.1 µM and inactive = higher.

How the values were obtained:
Test in all cases: NCI-60 cell line screen, 48 h
[1] = test system: DLD-1
[2] = test system: EKVX
[3] = test system: SR
[4] = test system: HOP-62
[5] = test system: HOP-92
[6] = test system: TK-10
[7] = test system: OVCAR-5
[8] = test system: A498
[9] = test system: HCT-15
[10] = test system: A549
[11] = test system: OVCAR-8
[12] = test system: NCI-H460
[13] = test system: KM12
[14] = test system: M14
[15] = test system: UO-31
[16] = test system: UACC-257
[17] = test system: HCT-116
[18] = test system: KM-20L2
[19] = test system: OVCAR-4
[20] = test system: COLO 205
[21] = test system: SK-MEL-2
[22] = test system: SK-MEL-5
[23] = test system: NCI-H522
[24] = test system: 786-0
[25] = test system: SNB-19
[26] = test system: Malme-3M
[27] = test system: ACHN
[28] = test system: UACC-62
[29] = test system: SW-620
[30] = test system: SN12C
[31] = test system: HL-60
[32] = test system: HOP-18
[33] = test system: NCI-H23
[34] = test system: LXFL 529
[35] = test system: OVCAR-3
[36] = test system: RXF 393
[37] = test system: HCC 2998
[38] = test system: SF-268
[39] = test system: SF-539
[40] = test system: IGROV-1
[41] = test system: SK-MEL-28
[42] = test system: U-251
[43] = test system: M19-MEL
[44] = test system: DMS-114
[45] = test system: HT-29
[46] = test system: SF-295
[47] = test system: SK-OV-3
[48] = test system: K562
[49] = test system: CAKI-1
[50] = test system: CCRF-CEM
[51] = test system: MOLT-4
[52] = test system: SNB-78
[53] = test system: SNB-75
[54] = test system: DMS-273
[55] = test system: NCI-H226
[56] = test system: LOX IMVI
[57] = test system: RPMI-8226

`Cc1ccc(/C=C(\NC(=O)c2ccccc2)c2nc3ccccc3[nH]2)cc1` was tested, and the GI50 [1] was 56.8 µM (inactive), the GI50 [2] was 74.5 µM (inactive) and the GI50 [3] was 37.4 µM (inactive). The GI50 [4] was > 100 µM (inactive), the GI50 [5] was 28.3 µM (inactive) and the GI50 [6] was > 100 µM (inactive). For the same compound, the GI50 [7] was > 100 µM (inactive), the GI50 [8] was 38 µM (inactive) and the GI50 [9] was 45.6 µM. The GI50 [10] was 42.7 µM (inactive), the GI50 [11] was 43.8 µM (inactive) and the GI50 [12] was 37.2 µM (inactive). For the same compound, the GI50 [13] was 40.6 µM (inactive), the GI50 [14] was 50 µM (inactive) and the GI50 [15] was 48.9 µM (inactive). The GI50 [16] was 35.3 µM (inactive), the GI50 [17] was 37.2 µM (inactive) and the GI50 [18] was 47.1 µM (inactive). The GI50 [19] was 70.5 µM (inactive), the GI50 [20] was 48.2 µM (inactive) and the GI50 [21] was 31.6 µM (inactive). For the same compound, the GI50 [22] was 12.8 µM (inactive), the GI50 [23] was 42.2 µM (inactive) and the GI50 [24] was 39.3 µM (inactive). The GI50 [25] was 39.4 µM (inactive), the GI50 [26] was 45.5 µM (inactive) and the GI50 [27] was 47.5 µM (inactive). For the same compound, the GI50 [28] was 83.6 µM (inactive), the GI50 [29] was 50.4 µM (inactive) and the GI50 [30] was 61 µM (inactive). The GI50 [31] was 23.9 µM (inactive), the GI50 [32] was > 100 µM (inactive) and the GI50 [33] was 59.6 µM (inactive). For the same compound, the GI50 [34] was 32.2 µM (inactive), the GI50 [35] was 46.9 µM (inactive) and the GI50 [36] was > 100 µM (inactive). For the same compound, the GI50 [37] was 49.5 µM (inactive), the GI50 [38] was 60.8 µM (inactive) and the GI50 [39] was > 100 µM (inactive). The GI50 [40] was > 100 µM (inactive), the GI50 [41] was 71.9 µM (inactive) and the GI50 [42] was 41.2 µM (inactive). For the same compound, the GI50 [43] was 46.5 µM (inactive), the GI50 [44] was 27.6 µM (inactive) and the GI50 [45] was 37.5 µM (inactive). For the same compound, the GI50 [46] was 36.6 µM (inactive).

With `Cc1csc(CCC(N)C(=O)O)n1` (configuration not stated) the GI50 [1] was > 100 µM (inactive), the GI50 [2] was > 100 µM (inactive) and the GI50 [5] was > 100 µM (inactive). For the same compound, the GI50 [6] was > 100 µM (inactive), the GI50 [9] was over 100 µM and the GI50 [10] was > 100 µM (inactive). The GI50 [47] was > 100 µM (inactive), the GI50 [48] was > 100 µM (inactive) and the GI50 [11] was > 100 µM (inactive). For the same compound, the GI50 [12] was > 100 µM (inactive), the GI50 [13] was > 100 µM (inactive) and the GI50 [14] was > 100 µM (inactive). The GI50 [15] was > 100 µM (inactive), the GI50 [16] was > 100 µM (inactive) and the GI50 [17] was > 100 µM (inactive). The GI50 [20] was > 100 µM (inactive), the GI50 [49] was > 100 µM (inactive) and the GI50 [50] was > 100 µM (inactive). The GI50 [22] was > 100 µM (inactive), the GI50 [23] was > 100 µM (inactive) and the GI50 [24] was > 100 µM (inactive). The GI50 [51] was > 100 µM (inactive), the GI50 [52] was > 100 µM (inactive) and the GI50 [26] was > 100 µM (inactive). The GI50 [27] was > 100 µM (inactive), the GI50 [28] was > 100 µM (inactive) and the GI50 [29] was > 100 µM (inactive). The GI50 [30] was > 100 µM (inactive), the GI50 [32] was > 100 µM (inactive) and the GI50 [33] was > 100 µM (inactive). The GI50 [53] was > 100 µM (inactive), the GI50 [34] was > 100 µM (inactive) and the GI50 [54] was > 100 µM (inactive). The GI50 [35] was > 100 µM (inactive), the GI50 [36] was > 100 µM (inactive) and the GI50 [37] was > 100 µM (inactive). The GI50 [39] was > 100 µM (inactive), the GI50 [55] was > 100 µM (inactive) and the GI50 [56] was > 100 µM (inactive). The GI50 [40] was > 100 µM (inactive), the GI50 [41] was > 100 µM (inactive) and the GI50 [42] was > 100 µM (inactive). The GI50 [57] was > 100 µM (inactive), the GI50 [43] was > 100 µM (inactive) and the GI50 [45] was > 100 µM (inactive). For the same compound, the GI50 [46] was > 100 µM (inactive).
